Measured values reported in patent publication US4250176A, “Piperazine derivatives” (priority 1979, dated 1981).
≈ marks a conversion by molar mass, not a printed value. Structures can show the parent of a compound that is named as a salt. Where two headings read alike, the source gives them in different places.

Legend:
[1] = system: Guinea-pig ileum strips, histamine-induced contraction; test: Anti-histamine activity in "vitro": histamine-induced spasms of guinea-pig ileum strips; type: cell-based; settings: Cavia porcellus, 5 min, histamine 0.5 mg/liter, 5 minutes incubation, concentration giving significant inhibition (50%) of the contraction
Procedure: The histamine--(0.5 mg/liter) induced spasms are recorded Kymographically with an isotonic lever giving a 5-fold magnification.

[2] = system: histamine paw oedema in guinea pigs; test: Histamine paw oedema in guinea pigs; type: in vivo, guinea pig; settings: Cavia porcellus, oral dose giving paw reaction below 10 units 10 minutes after 50 μg histamine s.p., 2 hours after dosing, read-out: Anaphylaxis in guinea pigs oral effective dose in mg/kg: Histamine oedema
Procedure: Guinea pigs, weighing between 400 and 500 g, are sensitized to ovalbumin by subplantar (s.p.) injection of 0.05 ml of antiserum in the left hind paw. The animals are then starved and orally treated, 24 hours after the sensitization, with saline (=control animals) or a particular dose of the compound under investigation. The histamine injection (at a dose of 50 μg) was given s.p. in the right hind paw 2 hours after the oral pretreatment with the compound.

[3] = system: Guinea pigs sensitized to ovalbumin (anaphylactic shock); test: Anaphylaxis in guinea pigs: protection against death after ovalbumin challenge (survival); type: in vivo, guinea pig; settings: Cavia porcellus, estimated ED50, oral, protection against death after i.v. 0.6 mg ovalbumin, read-out: Anaphylaxis in guinea pigs oral effective dose in mg/kg: Survival
Procedure: The anti-anaphylactic and antihistaminic effects of the subject compounds (I) and salts thereof are studied "in vivo" in guinea pigs.
Guinea pigs, weighing between 400 and 500 g, are sensitized to ovalbumin by subplantar (s.p.) injection of 0.05 ml of antiserum in the left hind paw. The animals are then starved and orally treated, 24 hours after the sensitization, with saline (=control animals) or a particular dose of the compound under investigation.
The histamine injection (at a dose of 50 μg) was given s.p. in the right hind paw 2 hours after the oral pretreatment with the compound. The diameters of both hind paws are first measured before the histamine injection is given and again 10 minutes thereafter. The animals are challenged intravenously with 0.6 mg of ovalbumin 30 minutes after the histamine injection. All control animals develop typical primary anaphylactic shock symptoms (coughing, difficult breathing, convulsions) and 85% of these control animals die within 15 minutes after the ovalbumin injection. Protection against death is used as the criterion for possible drug effects and the estimated ED50 -value, i.e. the oral dose whereby the protection is observed in 50% of the guinea pigs, is listed in the tables below.

[4] = Table I-a, read-out: Histamine in "vitro" (ileum) effective conc.
[5] = Table I-b, read-out: Histamine in "vitro" (ileum) effective conc.

Compound `O=c1[nH]c2cc(C(F)(F)F)ccc2n1CCCN1CCN(C(c2ccccc2)c2ccccc2)CC1` [1-{3-[4-(diphenylmethyl)-1-piperazinyl]propyl}-1,3-dihydro-5-(trifluoromethyl)-2H-benzimidazol-2-one] has an IC50 [1, 4] of 0.02 µg/mL (≈ 0.0404 µM), a minimal effective dose ([2]; Table I-a) of 0.31 mg/kg and an ED50 ([3]; Table I-a) of 0.31 mg/kg.
For `Cc1ccc2c(c1)[nH]c(=O)n2CCCN1CCN(C(c2ccccc2)c2ccccc2)CC1` [1-{3-[4-(diphenylmethyl)-1-piperazinyl]propyl}-1,3-dihydro-5-methyl-2H-benzimidazol-2-one], the IC50 [1, 4] was 0.01 µg/mL (≈ 0.0227 µM), the minimal effective dose ([2]; Table I-a) was 0.16 mg/kg and the ED50 ([3]; Table I-a) was 0.08 mg/kg.
`Cc1ccc2[nH]c(=O)n(CCCN3CCN(C(c4ccccc4)c4ccccc4)CC3)c2c1` [1-{3-[4-(diphenylmethyl)-1-piperazinyl]propyl}-1,3-dihydro-6-methyl-2H-benzimidazol-2-one] showed an IC50 [1, 4] of 0.01 µg/mL (≈ 0.0227 µM), a minimal effective dose ([2]; Table I-a) of 0.31 mg/kg and an ED50 ([3]; Table I-a) of 0.16 mg/kg.
`O=c1[nH]c2ccccc2n1CCCCN1CCC(OC(c2ccccc2)c2ccccc2)CC1` [1-{4-[4-(diphenylmethoxy)-1-piperidinyl]butyl}-1,3-dihydro-2H-benzimidazol-2-one] was tested, and the IC50 ([1]; Table I-d, read-out: Histamine in "vitro" (ileum) effective dose) was 0.005 µg/mL (≈ 0.011 µM), the minimal effective dose ([2]; Table I-d) was 0.31 mg/kg and the ED50 ([3]; Table I-d) was 0.63 mg/kg.
In the case of `c1ccc(C(c2ccccc2)N2CCN(CCCn3c(C4CCCCC4)nc4ccccc43)CC2)cc1` [2-cyclohexyl-1-{3-[4-(diphenylmethyl)-1-piperazinyl]propyl}-1H-benzimidazole], the IC50 [1, 5] is reported as no less than 0.16 µg/mL, the minimal effective dose ([2]; Table I-b) is reported as 2.5 mg/kg and the ED50 ([3]; Table I-b) is reported as 2.5 mg/kg.
`O=C(O)Cn1c(=O)n(CCCN2CCN(C(c3ccccc3)c3ccccc3)CC2)c2ccccc21` [3-{3-[4-(diphenylmethyl)-1-piperazinyl]-propyl}-2,3-dihydro-2-oxo-1H-benzimidazole-1-acetic acid hemihydrate] showed an IC50 [1, 4] of 0.08 µg/mL, a minimal effective dose ([2]; Table I-a) of less than 2.5 mg/kg and an ED50 ([3]; Table I-a) of less than 2.5 mg/kg.
Work on `O=c1[nH]c2cc(Cl)c(Cl)cc2n1CCCN1CCN(C(c2ccccc2)c2ccccc2)CC1` [5,6-dichloro-1-{3-[4-(diphenylmethyl)-1-piperazinyl]propyl}-1,3-dihydro-2H-benzimidazol-2one] yielded an IC50 [1, 4] of no less than 0.16 µg/mL, a minimal effective dose ([2]; Table I-a) of 2.5 mg/kg and an ED50 ([3]; Table I-a) of 2.5 mg/kg.
Compound `O=c1[nH]c2cc(Cl)ccc2n1CCN1CCN(C(c2ccccc2)c2ccccc2)CC1` [5-chloro-1-{2-[4-(diphenylmethyl)-1-piperazinyl]ethyl}-1,3-dihydro-2H-benzimidazol-2-one] has an IC50 [1, 4] of 0.01 µg/mL (≈ 0.0224 µM), a minimal effective dose ([2]; Table I-a) of 1.25 mg/kg and an ED50 ([3]; Table I-a) of 0.63 mg/kg.
In the case of `O=c1[nH]c2cc(Cl)ccc2n1CCCN1CCN(C(c2ccccc2)c2ccccc2)CC1` [5-chloro-1-{3-[4-(diphenylmethyl)-1-piperazinyl]propyl}-1,3-dihydro-2H-benzimidazol-2-one], the IC50 [1, 4] is reported as 0.01 µg/mL (≈ 0.0217 µM), the minimal effective dose ([2]; Table I-a) is reported as 1.25 mg/kg and the ED50 ([3]; Table I-a) is reported as 0.63 mg/kg.
With `O=c1[nH]c2ccc(Cl)cc2n1CCN1CCN(C(c2ccccc2)c2ccccc2)CC1` [6-chloro-1-{2-[4-(diphenylmethyl)-1-piperazinyl]ethyl}-1,3-dihydro-2H-benzimidazol-2-one] the IC50 [1, 4] was 0.02 µg/mL (≈ 0.0447 µM), the minimal effective dose ([2]; Table I-a) was 2.5 mg/kg and the ED50 ([3]; Table I-a) was 2.5 mg/kg.
Compound `O=c1[nH]c2ccc(Cl)cc2n1CCCN1CCN(C(c2ccccc2)c2ccccc2)CC1` [6-chloro-1-{3-[4-(diphenylmethyl)-1-piperazinyl]propyl}-1,3-dihydro-2H-benzimidazol-2-one] has an IC50 [1, 4] of 0.04 µg/mL (≈ 0.0868 µM), a minimal effective dose ([2]; Table I-a) of 0.63 mg/kg and an ED50 ([3]; Table I-a) of 0.63 mg/kg.
Work on `O=c1[nH]c2ccccc2n1CCN1CCN(C(c2ccccc2)c2ccccc2)CC1` [I-a: L=H, R1=H, R2=H, (CH2)2, R6=H, R7=H, 1-{2-[4-(diphenylmethyl)-1-piperazinyl]ethyl}-1,3-dihydro-2H-benzimidazol-2-one] yielded an IC50 [1, 4] of 0.01 µg/mL (≈ 0.0242 µM), a minimal effective dose ([2]; Table I-a) of 1.25 mg/kg and an ED50 ([3]; Table I-a) of 0.63 mg/kg.
Work on `O=c1[nH]c2ccccc2n1CCCN1CCN(C(c2ccccc2)c2ccccc2)CC1` [I-a: L=H, R1=H, R2=H, (CH2)3, R6=H, R7=H, 1-{3-[4-(diphenylmethyl)-1-piperazinyl]propyl}-1,3-dihydro-2H-benzimidazol-2-one] yielded an IC50 [1, 4] of 0.005 µg/mL (≈ 0.0117 µM), a minimal effective dose ([2]; Table I-a) of 0.31 mg/kg and an ED50 ([3]; Table I-a) of 0.1 mg/kg.
`O=c1[nH]c2ccccc2n1CCCCN1CCN(C(c2ccccc2)c2ccccc2)CC1` [I-a: L=H, R1=H, R2=H, (CH2)4, R6=H, R7=H, 1-{4-[4-(diphenylmethyl)-1piperazinyl]butyl}-1,3-dihydro-2H-benzimidazol-2-one] showed an IC50 [1, 4] of 0.01 µg/mL (≈ 0.0227 µM), a minimal effective dose ([2]; Table I-a) of 0.31 mg/kg and an ED50 ([3]; Table I-a) of 0.16 mg/kg.
Work on `O=c1[nH]c2ccccc2n1CCCCCN1CCN(C(c2ccccc2)c2ccccc2)CC1` [I-a: L=H, R1=H, R2=H, (CH2)5, R6=H, R7=H, 1-{5-[4-(diphenylmethyl)-1-piperazinyl]pentyl-1,3-dihydro-2H-benzimidazol-2-one dihydrochloride.hydrate] yielded an IC50 [1, 4] of 0.01 µg/mL, a minimal effective dose ([2]; Table I-a) of 2.5 mg/kg and an ED50 ([3]; Table I-a) of 0.63 mg/kg.
With `O=c1[nH]c2ccccc2n1CCCCCCN1CCN(C(c2ccccc2)c2ccccc2)CC1` [I-a: L=H, R1=H, R2=H, (CH2)6, R6=H, R7=H, 1-{6-[4-(diphenylmethyl)-1-piperazinyl]hexyl}-1,3-dihydro-2H-benzimidazol-2-one] the IC50 [1, 4] was 0.01 µg/mL (≈ 0.0213 µM), the minimal effective dose ([2]; Table I-a) was 2.5 mg/kg and the ED50 ([3]; Table I-a) was 1.25 mg/kg.
Work on `CCc1nc2ccccc2n1CCCN1CCN(C(c2ccccc2)c2ccccc2)CC1` [I-b: M=C2H5, R1=H, (CH2)3, R6=H, R7=H, 1-{3-[4-(diphenylmethyl)-1-piperazinyl]propyl}-2-ethyl-1H-benzimidazole trihydrochloride.hydrate] yielded an IC50 [1, 5] of 0.01 µg/mL, a minimal effective dose ([2]; Table I-b) of 2.5 mg/kg and an ED50 ([3]; Table I-b) of 2.5 mg/kg.
For `Cc1nc2ccccc2n1CCCN1CCN(C(c2ccccc2)c2ccccc2)CC1` [I-b: M=CH3, R1=H, (CH2)3, R6=H, R7=H, 1-{3-[4-(diphenylmethyl)-1-piperazinyl]propyl}-2-methyl-1H-benzimidazole], the IC50 [1, 5] was 0.02 µg/mL (≈ 0.0471 µM), the minimal effective dose ([2]; Table I-b) was 2.5 mg/kg and the ED50 ([3]; Table I-b) was 2.5 mg/kg.
With `Cc1nc2ccccc2n1CCCCN1CCN(C(c2ccccc2)c2ccccc2)CC1` [I-b: M=CH3, R1=H, (CH2)4, R6=H, R7=H, 1-{4-[4-(diphenylmethyl)-1-piperazinyl]butyl}-2-methyl-1H-benzimidazole] the IC50 [1, 5] was 0.005 µg/mL (≈ 0.0114 µM), the minimal effective dose ([2]; Table I-b) was 1.25 mg/kg and the ED50 ([3]; Table I-b) was 1.25 mg/kg.
Work on `CSc1nc2ccccc2n1CCCN1CCN(C(c2ccccc2)c2ccccc2)CC1` [I-b: M=CH3S, R1=H, (CH2)3, R6=H, R7=H, 1-{3-[4-(diphenylmethyl)-1piperazinyl]propyl}-2-(methylthio)-1H-benzimidazole trihydrochloride.hydrate] yielded an IC50 [1, 5] of 0.16 µg/mL, a minimal effective dose ([2]; Table I-b) of 1.25 mg/kg and an ED50 ([3]; Table I-b) of 1.25 mg/kg.
Work on `Nc1nc2ccccc2n1CCCN1CCN(C(c2ccccc2)c2ccccc2)CC1` [I-b: M=H2N, R1=H, (CH2)3, R6=H, R7=H, 1-{3-[4-(diphenylmethyl)-1-piperazinyl]propyl}-1H-benzimidazol-2-amine] yielded an IC50 [1, 5] of no more than 0.16 µg/mL, a minimal effective dose ([2]; Table I-b) of 2.5 mg/kg and an ED50 ([3]; Table I-b) of 2.5 mg/kg.
Work on `c1ccc(C(c2ccccc2)N2CCN(CCn3cnc4ccccc43)CC2)cc1` [I-b: M=H, R1=H, (CH2)2, R6=H, R7=H, 1-{2-[4-(diphenylmethyl)-1-piperazinyl]ethyl}-1H-benzimidazole] yielded an IC50 [1, 5] of 0.005 µg/mL (≈ 0.0126 µM), a minimal effective dose ([2]; Table I-b) of 1.25 mg/kg and an ED50 ([3]; Table I-b) of 1.25 mg/kg.
